Data as given in ChEMBL document CHEMBL4476888, “Tosylacetate based compounds and derivatives thereof as phgdh inhibitors” (2018).
pIC50: −log10 of the molar value.

biological target: T1, D-3-phosphoglycerate dehydrogenase (Homo sapiens, UniProt O43175); assay: Inhibition of N-terminal HIS-tagged and TEV cleavage site containing full length PHGDH (unknown origin) expressed in Escherichia coli assessed as reduction in conversion of 3-Phosphoglycerate and NAD to 3-Phosphohydroxypyruvate and NADH using 250 uM NAD and 500 uM 3-PG incubated for 240 mins by fluorescence based assay
T1 sequence (O43175 whole entry): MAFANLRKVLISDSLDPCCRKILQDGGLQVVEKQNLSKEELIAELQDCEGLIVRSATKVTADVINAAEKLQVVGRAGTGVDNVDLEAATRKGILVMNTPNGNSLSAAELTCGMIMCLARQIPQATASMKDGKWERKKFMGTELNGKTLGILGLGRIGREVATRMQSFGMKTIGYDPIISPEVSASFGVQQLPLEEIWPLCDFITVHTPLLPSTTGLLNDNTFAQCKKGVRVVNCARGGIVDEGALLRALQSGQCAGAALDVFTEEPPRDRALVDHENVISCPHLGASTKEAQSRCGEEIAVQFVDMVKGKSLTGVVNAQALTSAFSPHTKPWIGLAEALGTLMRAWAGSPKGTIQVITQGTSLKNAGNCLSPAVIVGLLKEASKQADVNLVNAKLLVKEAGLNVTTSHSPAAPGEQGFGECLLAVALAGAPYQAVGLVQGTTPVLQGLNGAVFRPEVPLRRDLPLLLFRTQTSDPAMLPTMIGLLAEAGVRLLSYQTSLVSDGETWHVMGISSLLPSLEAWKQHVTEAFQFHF

With `Cc1cc(Cl)c2cc(C(=O)N[C@H](C)c3ccc(S(=O)(=O)CC(=O)OCCNC(=O)OC(C)(C)C)cc3)n(C)c2c1` as the molecule, how does the pIC50 read?
Its pIC50 is 6.15.

With `Cc1cc(Cl)c2cc(C(=O)N[C@H](CO)c3ccc(S(=O)(=O)CC(=O)OCC4(F)COC4)cc3)n(C)c2c1` as the molecule, how does the pIC50 read?
The pIC50 was 7.57.

With `COC(=O)CS(=O)(=O)c1ccc([C@@H](C)NC(=O)c2cc3c(Cl)cc(C)cc3n2C)nc1` as the molecule, how does the pIC50 read?
Its pIC50 is 5.95.

With `Cc1cc2c(cc(C(=O)N[C@@H](C)c3ccc(S(=O)(=O)CC(=O)O)cc3)n2C)c(Cl)c1Cl` as the molecule, how does the pIC50 read?
Its pIC50 is 6.81.

How did the pIC50 turn out when `COCCOC(=O)CS(=O)(=O)c1ccc([C@@H](CO)NC(=O)c2cc3c(Cl)cc(C)cc3n2C)cc1` was run?
Its pIC50 is 7.21.

How did the pIC50 turn out when `Cc1cc(Cl)c2cc(C(=O)N[C@H](C)c3ccc(S(=O)(=O)C(C)(C)C(=O)OC(C)(C)C)cc3)n(C)c2c1` was run?
Its pIC50 is 5.30.
